Measured values from publication PMC8955307, “Nucleobase-Derived Nitrones: Synthesis and Antioxidant and Neuroprotective Activities in an In Vitro Model of Ischemia–Reperfusion” (International Journal of Molecular Sciences, 2022).

Tests used:
[1] = Hydroxyl radical scavenging (competition with DMSO); conditions: tested at 100 µM
Experimental: The competition of the tested nitrones (100 µM) with DMSO (33 mM) in the phosphate buffer (50 mM), pH 7.4, was used. The hydroxyl radicals were generated by the Fe^3+/ascorbic acid system (EDTA 0.1 mM, Fe^3+ 167 µM, ascorbic acid 10 mM), and the samples were incubated at 37 °C/30 min. A 17% w/v solution of CCl3CO2H was used to stop the radical propagation. The percentage scavenging activity was compared to Trolox used as a reference.

[2] = target: T1, Soybean Lipoxygenase (SLOX) (Glycine max, UniProt P08170); assay: In vitro inhibition of soybean lipoxygenase (UV absorbance-based enzyme assay); format: biochemical; conditions: soybean LOX, sodium linoleate substrate, pH 9
T1 sequence (P08170 1-839): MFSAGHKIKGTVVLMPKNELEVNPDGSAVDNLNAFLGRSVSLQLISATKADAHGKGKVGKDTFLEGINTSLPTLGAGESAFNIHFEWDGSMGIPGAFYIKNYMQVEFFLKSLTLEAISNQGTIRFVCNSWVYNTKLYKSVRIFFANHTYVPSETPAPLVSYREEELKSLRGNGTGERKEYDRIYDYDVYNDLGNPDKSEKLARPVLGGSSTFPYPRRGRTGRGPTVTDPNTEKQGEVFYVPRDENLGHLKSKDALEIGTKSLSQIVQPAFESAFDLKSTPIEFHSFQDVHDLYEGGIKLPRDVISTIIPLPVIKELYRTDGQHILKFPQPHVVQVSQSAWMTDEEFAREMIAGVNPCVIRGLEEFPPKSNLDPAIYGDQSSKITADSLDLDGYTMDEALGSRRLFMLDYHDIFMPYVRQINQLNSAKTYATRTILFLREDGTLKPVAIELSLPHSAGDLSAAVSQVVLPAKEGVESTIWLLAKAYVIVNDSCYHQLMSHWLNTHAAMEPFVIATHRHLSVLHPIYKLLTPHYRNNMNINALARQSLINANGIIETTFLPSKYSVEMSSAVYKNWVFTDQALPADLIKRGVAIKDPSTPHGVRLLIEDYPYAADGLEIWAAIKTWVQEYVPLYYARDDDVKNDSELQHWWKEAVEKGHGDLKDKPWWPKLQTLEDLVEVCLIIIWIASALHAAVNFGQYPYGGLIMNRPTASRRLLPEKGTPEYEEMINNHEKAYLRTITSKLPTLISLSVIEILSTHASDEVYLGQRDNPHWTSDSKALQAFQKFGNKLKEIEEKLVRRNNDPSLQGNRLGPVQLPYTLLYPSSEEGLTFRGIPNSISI
Experimental: The experimental conditions followed our previously reported protocol. Sodium linoleate was used as a substrate (0.1 mM) with 0.2 mL of the saline solution of SLOX (1/9 × 10^−4 w/v) in the Tris buffer pH 9.

[3] = ABTS radical cation decolorization assay; conditions: tested at 100 µM
Experimental: Approximately 10 µL of the tested compounds in DMSO (100 µM final concentration) were mixed with 200 µL of ABTS∙^+ (100 mM) and 790 µL absolute ethanol. The absorbance value was recorded 1 min after mixing at 734 nm and compared to Trolox.

[4] = tested on: human neuroblastoma SH-SY5Y cells; assay: Superoxide radical production (DHE fluorescence) after OGD and 3 h OGR (IR); format: cell-based; conditions: Homo sapiens, OGD + 3 h OGR (IR); for EC50: compounds 0.1 to 1000 μM, read-out: Antioxidant Activity EC50 ± SEM (superoxide production); for Emax: read-out: Maximal Activity mean±SEM (antioxidant)
Experimental: A density of 2–2.5 × 10^5 SHSY5Y cells/well was used to seed in 48-well plates to quantify superioxide anion formation. Firstly, cultured cells were exposed to OGD treatment for 3–4 h or maintained in normoxic conditions (controls). Thereafter, medium was replaced with oxygenated Dulbecco’s: Ham’s F12 medium with glucose, 1% Antibiotic-Antimycotic, 1% Gentamicin and 10% FCS. Cells were incubated in the absence (controls) or presence of indicated concentrations of the compounds of study, at 37 °C for 3 h. […] For every condition, the linear regression of fluorescence data (expressed in arbitrary fluorescence units, AFU) was calculated, and the slopes (a) of the best fitting lines (y = ax) were considered as an index of superoxide production, as described previously.

[5] = Reducing ability: interaction with DPPH; conditions: tested at 100 µM
[6] = tested on: SH-SY5Y human neuroblastoma cells; assay: Anti-necrotic effect: LDH release after OGD (4 h) and 24 h OGR (IR); format: cell-based; conditions: Homo sapiens, OGD 4 h + 24 h OGR (IR); for IC50: compounds 0.1 μM to 1 mM, read-out: LDH Release Inhibition IC50 ±SEM; for Emax: read-out: Maximal Inhibition Mean±SEM (LDH release)
Experimental: (§1) To induce experimental ischemia, and the sub-consequent cellular damage, the neuroblastoma cultures underwent OGD for 3–4 h, maintained in a glucose-free Dulbecco’s medium inside an anaerobic chamber in the presence of a gas mixture of 95% N2/5% CO2 and humidified at 37 °C at a constant pressure of 0.15 bar. After the OGD period (4 h), medium was substituted by oxygenated 10% FCS-containing medium, and cells were incubated in conditions of normoxia for 24 h to recovery (R24h). The compounds used in the neuroprotection studies: nitrones 9a–i, α-phenyl-N-tert-butyl nitrone (PBN) and N-acetyl-L-cysteine (NAC) (0.01 μM−1000 µM), were added at the beginning of R24h as described. Concurrently, controls in the absence of the OGD procedure were performed by maintaining these cells with Dulbecco’s medium including glucose for 3–4 h in an incubator in conditions of normoxia during the OGD period; thereafter, the medium was changed, and the cells (in the presence or absence of the different study compounds) were returned to the incubator for 24 h of recovery, as described. In addition, experiments including the same amounts of vehicle (final concentration < 1% dimethyl sulfoxide) were performed, serving as controls. The effects of nitrones 9a–g were analyzed three-five times independently using different culture batches, and each experiment was carried out in triplicate.
Anti-necrotic cell activity was evaluated by culturing SHSY5Y cells in 48-well dishes, in a density of 2 × 10^5 cells/well and treating them as controls or under the OGD-R24h procedure, adding the testing compounds at 0.01–1000 µM (see point 4.2.2.). Media of every well were collected in Eppendorf tubes properly labelled and stored at −20 °C until measurement (samples would be needed to measure extracellular NADH). Afterwards, each well was recharged with a 0.1 M Phosphate Buffer with 0.5% Triton X-100, pH 7.5, in order to scratch the cells from the bottom of the well. After a 13.000 rpm centrifugation, the soluble fractions are collected and labelled (samples would be essential to measure intracellular NADH). Finally, LDH activity was quantified as the degree of absorbance declined at 340, indicating the oxidation of NADH to NAD+ as described. Results are expressed as the LDH activity of the extracellular medium referred to the total LDH activity after cell lysis.

[7] = Inhibition of lipid peroxidation (ILPO), AAPH protocol with sodium linoleate; conditions: tested at 100 µM
Experimental: The reactants consisting of 10 µL (16 mM) sodium linoleate, 10 µL of the tested nitrones in DMSO (final concentration 100 µM), 50 µL of AAPH ([…]) as a free radical initiator, 930 µL phosphate buffer pH 7.4 (0.05 M) at 37 °C under air, were mixed and the reaction’s result (as absorbance value) was recorded at 234 nm in comparison to PBN as a reference.

[8] = tested on: SH-SY5Y human neuroblastoma cells; assay: Neuroprotection: cell viability (XTT metabolic activity) after OGD (4 h) followed by OGR (24 h) (IR); format: cell-based; conditions: Homo sapiens, OGD 4 h + OGR 24 h (IR); for Emax: 24 h, read-out: Maximal Activity mean±SEM (neuroprotection); for EC50: compounds 0.01 μM to 1 mM, read-out: Neuroprotection EC50 ± SEM
Experimental: Cultures of human neuroblastoma cells from line SH-SY5Y were performed in flasks containing Dulbecco’s: Ham’s F12, 1:1 [v/v] composed of 0.5 mM sodium pyruvate, 2.5 mM GlutaMAX™; GIBCO, Life Technologies, Madrid (Spain), 3.15 mg/mL glucose, 1% Antibiotic-Antimycotic (100 ui/mL penicillin, […] streptomycin, and 0.25 mg amphotericin B), 1% Gentamicin 15 mg/mL (Sigma-Aldrich, Madrid, Spain) and 10% Fetal Calf Serum (FCS) (Gibco; Life Technologies, Madrid, Spain) as as described. For each experiment, neuroblastoma cells were digested partially with 0.25% trypsin-EDTA and seeded in plates of 96 or 48 wells with a density of 0.5–1 or 2–2.5 × 10^5 cells/well, respectively, depending on the assay. At 80% confluence of the seeded cells, medium was renewed adding 0.1–1000 µM of the compounds tested.
as §1
(§2) Cell viability measurements were carried out in human neuroblastoma cells SHSY5Y using 96-well culture plates, containing about 0.5–1 × 10^5 cells/well, after the OGD-R24h or control treatment including 0.01–1000 µM of the different testing compounds (nitrones 9a–g, PBN, and NAC), utilizing the Cell Proliferation Kit II (XTT), Sigma Aldrich, Madrid, Spain, which determines the culture’s metabolic capacity, as described in [21, 22]. XTT solution (0.3 mg/mL final concentration) was added to the seeded cells, incubated for 2 h at 37 °C with 5% CO2 and 95% air (v/v), and a spectrophotometer reader (Biotek Power-Wave XS microplate-reader (BioTek Instruments, Madrid, Spain) was used to register the absorbance at 450 nm (reference 650 nm) of the soluble formazan product generated. 100% viability was set by control normoxic cells treated with medium only, and control cells were added 0.001–1% DMSO in every assay.

[9] = tested on: human neuroblastoma SH-SY5Y cells; assay: Basal neurotoxicity: cell viability under basal conditions; format: cell-based
Experimental: as §2

Structure (SMILES) | IC50 [2] [µM] | EC50 [4] [µM] | melting point | EC50 [8] [µM] | OH (%) scavenging [1] | ABTS+ (%) [3] [%] | Emax [4] [%] | DPPH (%) [5] [%] | IC50 [6] [µM] | Emax [6] [%] | ILPO (%) [7] | Emax [8] [%] | Neurotoxic effects at basal level (cell viability) [9]
CC(=O)N[C@@H](CS)C(=O)O [NAC, N-acetyl-L-cysteine, reference compound] | – | 0.97 ± 0.16 | – | 4.18 ± 0.52 | – | – | 126 ± 5.19 | – | 4.64 ± 1.05 | 99.1 ± 6.59 | – | 131 ± 4.85 | did not show any neurotoxic effects
CC(Cc1ccc(O)c(O)c1)C(C)Cc1ccc(O)c(O)c1 (stereo not shown) [NDGA, Nordihydroguaiaretic acid, reference compound] | – | – | – | – | – | – | – | 93 | – | – | – | – | –
Cc1c(C)c2c(c(C)c1O)CCC(C)(C(=O)O)O2 (stereo not shown) [Trolox, reference compound] | – | – | – | – | 73% | 91 | – | – | – | – | 93% | – | –

Now from value to compound, other results behind:

IC50 [2] [µM] | EC50 [4] [µM] | melting point | EC50 [8] [µM] | Structure (SMILES) | OH (%) scavenging [1] | ABTS+ (%) [3] [%] | Emax [4] [%] | DPPH (%) [5] [%] | IC50 [6] [µM] | Emax [6] [%] | ILPO (%) [7] | Emax [8] [%] | Neurotoxic effects at basal level (cell viability) [9]
62.5 | 0.37 ± 0.04 | – | – | C/[N+]([O-])=C/Cn1ccc(=O)[nH]c1=O [9a] | no activity and No | 19 | 111 ± 1.46 | 20 | 2.57 ± 0.53 | 100 ± 4.75 | 62% | – | –
28 | 3.69 ± 0.7 | 195 °C (dec.) | – | C/[N+]([O-])=C/Cn1cc(F)c(=O)[nH]c1=O [9c] | 99% | 5 | 96.1 ± 3.03 | 18 | ~1 | 148 ± 8.8 | 59% | – | –
33 | 0.28 ± 0.03 | 192 °C (dec.) | – | Cn1c(=O)c2ncn(C/C=[N+](/C)[O-])c2n(C)c1=O [9g] | 49% | 8 | 83 ± 1.37 | 15 | 2.66 ± 1.11 | – | – | 105 ± 3.19 | –
– | 0.32 ± 0.06 | – | 6.15 ± 0.33 | C/[N+]([O-])=C/Cn1ccc(=O)n(C/C=[N+](/C)[O-])c1=O [9h] | 25% | 50 | 127 ± 3.12 | 82 | 17.6 ± 3.33 | 126 ± 4.27 | inactive and No | 115 ± 6.92 | –
